Results on two molecules are retold here after US10100054B1, “Pyrido[2,3-d]pyrimidines as anticancer agents” (KING SAUD UNIVERSITY, priority 2018, dated 2018).

A value given as a limit tells only on which side of the number the result lay.

In one data set the target is PDGFRβ (Homo sapiens, UniProt P09619). Kind of data set: Kinase screening (radiometric or ADP-Glo assay). It is filed as biochemical. Here is the method: (§1) The in vitro enzyme inhibition determination for the pyrido[2,3-d]pyrimidine derivatives was performed against a range of five protein kinases [PDGFR beta, EGFR, CDK4/Cyclin D1, PI3K (p100b/p85a), and PI3K (p100a/p85a)], including two concentrations (50 & 100 μM) in single measurements using the radiometric or ADP-Glo assay method. The intra-assay variability was determined to be less than 10%. Inhibition of target activity by the compound gives negative (−) values, while activation of target activity gives positive (+) value.
Sequence of PDGFRβ (P09619 33-1106, species assumed): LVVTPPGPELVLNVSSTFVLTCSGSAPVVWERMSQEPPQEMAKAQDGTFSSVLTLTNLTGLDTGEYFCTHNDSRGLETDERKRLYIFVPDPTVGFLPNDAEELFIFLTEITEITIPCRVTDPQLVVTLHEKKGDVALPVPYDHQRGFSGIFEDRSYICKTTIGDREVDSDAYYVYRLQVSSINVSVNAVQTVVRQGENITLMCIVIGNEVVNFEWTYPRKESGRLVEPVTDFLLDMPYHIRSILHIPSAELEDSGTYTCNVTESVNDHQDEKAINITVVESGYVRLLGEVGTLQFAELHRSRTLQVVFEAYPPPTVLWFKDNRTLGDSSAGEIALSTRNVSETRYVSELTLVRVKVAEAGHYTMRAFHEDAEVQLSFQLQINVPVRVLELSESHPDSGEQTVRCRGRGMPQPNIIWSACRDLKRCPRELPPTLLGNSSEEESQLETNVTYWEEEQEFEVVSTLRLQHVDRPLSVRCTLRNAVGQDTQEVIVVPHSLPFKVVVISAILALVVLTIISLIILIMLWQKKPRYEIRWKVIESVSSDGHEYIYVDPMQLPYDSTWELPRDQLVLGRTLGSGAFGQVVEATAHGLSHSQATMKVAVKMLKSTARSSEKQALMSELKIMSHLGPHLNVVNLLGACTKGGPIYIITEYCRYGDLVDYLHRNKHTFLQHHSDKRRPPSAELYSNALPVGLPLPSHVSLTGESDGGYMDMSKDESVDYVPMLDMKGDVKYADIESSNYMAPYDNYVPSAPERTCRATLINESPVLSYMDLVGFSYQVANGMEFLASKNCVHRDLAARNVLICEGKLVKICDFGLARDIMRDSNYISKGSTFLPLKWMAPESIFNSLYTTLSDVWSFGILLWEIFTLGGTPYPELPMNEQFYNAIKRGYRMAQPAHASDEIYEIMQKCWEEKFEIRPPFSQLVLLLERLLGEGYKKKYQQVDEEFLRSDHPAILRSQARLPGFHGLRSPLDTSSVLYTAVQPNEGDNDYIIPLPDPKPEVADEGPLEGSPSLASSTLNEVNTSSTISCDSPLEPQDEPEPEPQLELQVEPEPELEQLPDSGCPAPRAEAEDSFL
(§2) The pyrido[2,3-d]pyrimidine derivative 5 was supplied by Kinexus as a powder, and a stock solution was made in DMSO. The stock solution was then diluted to form an assay stock solution, and this was used to profile against the protein kinases and lipid protein kinases [PDGFR beta, EGFR, CDK4/Cyclin D1, PI3K (p100b/p85a), and PI3K (p100a/p85a)]. The assay condition for the protein kinase targets was optimized to yield acceptable enzymatic activity. In addition, the assays were optimized to give high signal-to-noise ratio.
(§3) For Protein Kinase (PK) Assays, a radioisotope assay format was used for profiling evaluation of PK targets and all assays were carried out in a designated radioactive working area. PK assays (in singlicate) were performed at ambient temperature for 30 min in a final volume of 25 μl according to the following assay reaction recipe: Component 1:5 μl of diluted active PK target (˜10-50 nM final concentration); Component 2:5 μl of stock solution of substrate (1-5 μg of peptide substrate); Component 3:5 μl of kinase assay buffer; Component 4:5 μl of compound (50 μM) or 10% DMSO; and Component 5:5 μl of ^33P-ATP (250 μM stock solution, 0.8 μCi).
(§4) The assay was initiated by the addition of ^33P-ATP, and the reaction mixture incubated at ambient temperature for 30 minutes. After the incubation period, the assay was terminated by spotting 10 μl of the reaction mixture onto Multiscreen phosphocellulose P81 plate. The Multiscreen phosphocellulose P81 plate was washed 3 times for approximately 15 min each in a 1% phosphoric acid solution. The radioactivity on the P81 plate was counted in the presence of scintillation fluid in a Trilux scintillation counter. Blank control was set up that included all the assay components except the addition of the appropriate substrate (replaced with equal volume of assay dilution buffer). The corrected activity for PK target was determined by removing the blank control value.
A general note: In ADP-Glo the light output rises with the ADP produced.

For a further data set, the target named is CDK4/CyclinD1 (Homo sapiens, UniProt P11802). The data set can be described thus: Kinase screening (radiometric or ADP-Glo assay). It is filed as biochemical. As to the method:
as §1, §2, §3, §4

The target of another data set is EGFR (Homo sapiens, UniProt P00533). The data set can be described thus: Kinase screening (radiometric or ADP-Glo assay). Format: biochemical. As to the method:
as §1, §2, §3, §4

The next data set addresses PI3K (p110a/p85a) (Homo sapiens, UniProt P42336). Kind of data set: Kinase screening (radiometric or ADP-Glo assay). It is filed as biochemical. Particulars: negative values: inhibition, positive values: activation of target activity. As to the method: as §1, §2, §3, §4
For another data set, the system named is PC3. Kind of data set: In vitro anticancer screening, MTT cell viability. Format: cell-based. Particulars: Homo sapiens, PC-3; for inhibition at 100 µM: PC3, 100 μM dose, read-out: Growth inhibition (%); for IC50: PC3, MTT, 48 h. As to the method: (§5) Anticancer activity screening was adopted against five cancer cell lines, viz., HepG2, PC-3, HCT116, MCF-7, A549, and doxorubicin was used as a reference standard at 100 micromole.
(§6) Cell viability was assessed by the mitochondrial dependent reduction of yellow MTT (3-(4,5-dimethylthiazol-2-yl)-2,5-diphenyl tetrazolium bromide) to purple formazan. All the following procedures were done in a sterile area using a laminar air flow cabinet of class II biosafety (Baker, SG403INT, Sanford, Me., USA). Cells were suspended in DMEM medium for PC-3, and RPMI1640 in case of A-549, MCF-7, HCT-116 and HePG-2. The media are supplemented with 1% antibiotic antimycotic mixture (10,000 U ml^−1 Potassium Penicillin, 10,000 μg ml^−1 Streptomycin Sulfate and 25 μg ml^−1 Amphotericin B), 1% L-glutamine and 10% fetal bovine serum (complete growth medium) and kept at […] under 5% CO2. Cells were batch cultured for 10 days, then seeded at a concentration of 10×10^3 cells/well in fresh complete growth medium in 96-well Microtiter plastic plates at 37° C. for 24 h under 5% CO2 and a humid atmosphere using a water jacketed carbon dioxide incubator (Sheldon, TC2323, Cornelius, Oreg., USA). Media was aspirated, fresh medium (without serum) was added, and cells were incubated either alone (negative control) or with serial dilutions of each sample. After 48 h of incubation, the medium was aspirated, 40 μl MTT salt (2.5 μg ml^−1) was added to each well and incubated for a further four hours at 37° C. under 5% CO2. To stop the reaction and dissolving the formed crystals, 200 μl of 10% sodium dodecyl sulfate (SDS) in deionized water was added to each well and incubated overnight at 37° C. The absorbance was then measured using a microplate multi-well reader ELISA reader (Bio-Rad Laboratories Inc., model 3350, Hercules, Calif., USA) at 595 nm and a reference wavelength of 620 nm. A statistical significance was tested between samples and negative control (cells with vehicle) using independent t-test by SPSS 11 program. DMSO is the vehicle used for dissolution of plant extracts, and its final concentration in the cells was less than 0.2%. The percentage of change in viability was calculated according to the formula: (average absorbance of extract/average absorbance of negative control)−1)×100. A probit analysis was carried for IC50 determination using SPSS 11 program.

Another data set has as its system A549. Kind of data set: In vitro anticancer screening, MTT cell viability. Format: cell-based. Conditions: Homo sapiens; for inhibition at 100 µM: A549, 100 μM dose, read-out: Growth inhibition (%). As to the method:
as §5, §6

A further data set concerns MCF7. The data set can be described thus: In vitro anticancer screening, MTT cell viability. Conditions: Homo sapiens; for inhibition at 100 µM: MCF7, 100 μM dose, read-out: Growth inhibition (%). Format: cell-based. Here is the method: as §5, §6
In the next data set the test system is HCT116. The data set can be described thus: In vitro anticancer screening, MTT cell viability. It is filed as cell-based. Particulars: Homo sapiens, HCT-116; for inhibition at 100 µM: HCT116, 100 μM dose, read-out: Growth inhibition (%); for IC50: HCT116, MTT, 48 h. Here is the method:
as §5, §6

Another data set concerns HepG2. Kind of data set: In vitro anticancer screening, MTT cell viability. Format: cell-based. Conditions: Homo sapiens; for inhibition at 100 µM: HepG2, 100 μM dose, read-out: Growth inhibition (%); for IC50: HepG2, MTT, 48 h. Here is the method:
as §5, §6

Sequence of PI3K (p110a/p85a) (P42336 whole entry): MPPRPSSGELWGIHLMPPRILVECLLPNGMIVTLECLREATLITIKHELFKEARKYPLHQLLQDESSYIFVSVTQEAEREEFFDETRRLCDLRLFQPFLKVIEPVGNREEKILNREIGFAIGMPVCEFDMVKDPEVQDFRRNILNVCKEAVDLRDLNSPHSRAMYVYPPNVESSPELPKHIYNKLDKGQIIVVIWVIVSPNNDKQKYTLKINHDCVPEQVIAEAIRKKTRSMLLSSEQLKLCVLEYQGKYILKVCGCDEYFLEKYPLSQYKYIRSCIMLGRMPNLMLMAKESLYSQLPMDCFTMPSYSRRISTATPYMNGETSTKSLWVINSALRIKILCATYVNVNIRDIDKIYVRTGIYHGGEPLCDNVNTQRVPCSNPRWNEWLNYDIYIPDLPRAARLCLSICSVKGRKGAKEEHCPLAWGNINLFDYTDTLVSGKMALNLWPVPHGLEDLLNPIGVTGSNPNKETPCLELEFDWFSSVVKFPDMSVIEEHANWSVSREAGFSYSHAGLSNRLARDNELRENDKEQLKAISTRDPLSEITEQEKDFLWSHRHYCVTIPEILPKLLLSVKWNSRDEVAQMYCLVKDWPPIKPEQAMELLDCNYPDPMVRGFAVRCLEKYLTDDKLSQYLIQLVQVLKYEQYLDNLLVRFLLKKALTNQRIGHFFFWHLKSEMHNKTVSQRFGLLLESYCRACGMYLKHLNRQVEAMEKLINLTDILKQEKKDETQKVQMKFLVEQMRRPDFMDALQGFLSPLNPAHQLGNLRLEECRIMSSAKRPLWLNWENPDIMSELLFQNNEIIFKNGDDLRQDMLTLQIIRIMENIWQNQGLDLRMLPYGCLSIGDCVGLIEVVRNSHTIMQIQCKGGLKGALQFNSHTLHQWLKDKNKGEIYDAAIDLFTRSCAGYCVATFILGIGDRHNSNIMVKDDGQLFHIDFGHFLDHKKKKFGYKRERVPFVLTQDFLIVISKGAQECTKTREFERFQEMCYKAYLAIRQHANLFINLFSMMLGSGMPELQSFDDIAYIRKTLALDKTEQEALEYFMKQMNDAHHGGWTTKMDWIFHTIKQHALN
Sequence of PI3K (p110a/p85a) (P27986 whole entry partner): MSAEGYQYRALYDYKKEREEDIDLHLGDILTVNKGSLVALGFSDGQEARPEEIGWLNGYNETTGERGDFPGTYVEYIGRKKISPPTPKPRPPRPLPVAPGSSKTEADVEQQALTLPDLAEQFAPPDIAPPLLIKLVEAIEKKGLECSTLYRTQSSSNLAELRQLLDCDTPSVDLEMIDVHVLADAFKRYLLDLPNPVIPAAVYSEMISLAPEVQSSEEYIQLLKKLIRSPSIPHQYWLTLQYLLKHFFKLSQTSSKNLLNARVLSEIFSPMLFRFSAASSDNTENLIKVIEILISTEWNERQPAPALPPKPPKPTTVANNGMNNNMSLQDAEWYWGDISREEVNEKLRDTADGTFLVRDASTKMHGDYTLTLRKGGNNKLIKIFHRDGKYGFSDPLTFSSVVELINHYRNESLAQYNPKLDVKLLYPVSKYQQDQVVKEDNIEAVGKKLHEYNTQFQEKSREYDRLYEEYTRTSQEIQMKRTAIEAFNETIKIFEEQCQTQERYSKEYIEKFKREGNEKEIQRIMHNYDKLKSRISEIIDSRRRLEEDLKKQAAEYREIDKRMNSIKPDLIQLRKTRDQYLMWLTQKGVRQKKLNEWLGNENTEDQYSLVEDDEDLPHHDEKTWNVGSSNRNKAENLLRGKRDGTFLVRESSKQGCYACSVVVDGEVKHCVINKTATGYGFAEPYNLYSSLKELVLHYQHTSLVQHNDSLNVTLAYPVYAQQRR
Sequence of CDK4/CyclinD1 (P11802 whole entry, species assumed): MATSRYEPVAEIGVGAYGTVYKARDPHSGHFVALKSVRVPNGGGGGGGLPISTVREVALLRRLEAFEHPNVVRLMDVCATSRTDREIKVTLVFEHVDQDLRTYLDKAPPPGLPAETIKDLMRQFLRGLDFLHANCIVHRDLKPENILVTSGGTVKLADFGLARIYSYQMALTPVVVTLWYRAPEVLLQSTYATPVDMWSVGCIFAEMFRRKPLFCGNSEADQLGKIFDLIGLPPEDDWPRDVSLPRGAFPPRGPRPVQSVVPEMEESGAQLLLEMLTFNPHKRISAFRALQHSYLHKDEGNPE
Sequence of CDK4/CyclinD1 (P24385 whole entry partner, species assumed): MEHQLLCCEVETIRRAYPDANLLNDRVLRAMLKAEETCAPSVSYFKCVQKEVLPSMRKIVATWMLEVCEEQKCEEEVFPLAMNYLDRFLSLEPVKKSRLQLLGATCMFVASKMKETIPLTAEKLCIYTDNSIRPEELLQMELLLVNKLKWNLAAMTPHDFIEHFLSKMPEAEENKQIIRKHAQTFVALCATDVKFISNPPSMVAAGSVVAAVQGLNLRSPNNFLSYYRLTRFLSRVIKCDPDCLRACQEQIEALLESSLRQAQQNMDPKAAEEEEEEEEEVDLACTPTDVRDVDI
Sequence of EGFR (P00533 25-1210, species assumed): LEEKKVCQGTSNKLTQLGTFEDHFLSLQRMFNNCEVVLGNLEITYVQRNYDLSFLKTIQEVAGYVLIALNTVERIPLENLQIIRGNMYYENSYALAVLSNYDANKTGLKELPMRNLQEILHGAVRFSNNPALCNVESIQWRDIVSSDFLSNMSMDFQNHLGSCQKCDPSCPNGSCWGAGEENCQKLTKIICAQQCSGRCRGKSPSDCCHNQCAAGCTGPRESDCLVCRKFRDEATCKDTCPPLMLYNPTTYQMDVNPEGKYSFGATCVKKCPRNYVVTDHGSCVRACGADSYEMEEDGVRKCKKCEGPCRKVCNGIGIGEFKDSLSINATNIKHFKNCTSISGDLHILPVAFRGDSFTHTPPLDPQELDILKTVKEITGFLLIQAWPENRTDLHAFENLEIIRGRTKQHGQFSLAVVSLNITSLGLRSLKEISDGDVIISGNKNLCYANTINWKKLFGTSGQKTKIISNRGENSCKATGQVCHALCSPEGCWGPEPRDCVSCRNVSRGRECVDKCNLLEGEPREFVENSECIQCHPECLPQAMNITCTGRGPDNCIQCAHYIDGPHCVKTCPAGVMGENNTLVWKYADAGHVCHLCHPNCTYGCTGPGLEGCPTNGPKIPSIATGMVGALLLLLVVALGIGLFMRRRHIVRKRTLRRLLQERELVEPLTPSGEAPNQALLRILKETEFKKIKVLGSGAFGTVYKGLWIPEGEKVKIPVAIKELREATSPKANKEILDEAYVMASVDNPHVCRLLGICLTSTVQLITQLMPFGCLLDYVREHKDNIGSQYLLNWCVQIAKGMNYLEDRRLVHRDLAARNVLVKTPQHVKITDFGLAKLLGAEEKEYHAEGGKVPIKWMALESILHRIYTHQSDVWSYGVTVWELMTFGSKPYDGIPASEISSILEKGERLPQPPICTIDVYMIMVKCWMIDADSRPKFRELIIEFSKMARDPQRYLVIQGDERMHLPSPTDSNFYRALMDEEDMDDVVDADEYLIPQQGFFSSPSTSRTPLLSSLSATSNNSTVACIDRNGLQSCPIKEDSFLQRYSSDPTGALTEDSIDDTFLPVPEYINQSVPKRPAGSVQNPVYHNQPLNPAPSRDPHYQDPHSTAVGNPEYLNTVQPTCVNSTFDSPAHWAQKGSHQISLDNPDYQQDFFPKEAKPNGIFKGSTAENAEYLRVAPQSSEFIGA

`COc1cccc(-c2cc(-c3cccnc3)nc3nc(-n4[nH]c(C)cc4=O)[nH]c(=O)c23)c1` [Target] had a melting point of over 300 °C. In addition, the inhibition at 50 µM against PDGFRβ (50 μM) came out at 83%. Further, the inhibition at 100 µM at PDGFRβ (100 μM) was 90%. The inhibition at 50 µM at CDK4/CyclinD1 (50 μM) came to 31%. Also, the inhibition at 100 µM on CDK4/CyclinD1 (100 μM) stood at 73%. Also, the inhibition at 50 µM on EGFR (50 μM) came out at 79%. For the same molecule, the inhibition at 100 µM at EGFR (100 μM) was determined as 85%. Further, the inhibition at 50 µM against PI3K (p110a/p85a) (50 μM) was -178%. Besides, the inhibition at 100 µM on PI3K (p110a/p85a) (100 μM) was -185%. Also, in the data set with PC3, the inhibition at 100 µM came out at 100% and inhibition was half-maximal at 5.3 ± 0.09 µM (IC50). For the same molecule, in the data set with A549, the inhibition at 100 µM came out at 99%. This molecule also had an IC50 in the data set on A549 (A549, MTT, 48 h) of 3.21 ± 0.4 µM. The inhibition at 100 µM in the data set with MCF7 came out at 87%. Also, it took 9.1 ± 2.1 µM to reach half-maximal inhibition in the data set with MCF7 (MCF7, MTT, 48 h) (IC50). Moreover, in the data set with HCT116, the inhibition at 100 µM turned out to be 99% and 6.9 ± 0.5 µM corresponded to half-maximal inhibition (IC50). Further, in the data set on HepG2, the inhibition at 100 µM was found to be 100% and the half-maximal inhibitory concentration (IC50) was found to be 0.3 µM.

Take `COc1cccc2c1C(=O)c1c(O)c3c(c(O)c1C2=O)C[C@@](O)(C(=O)CO)C[C@@H]3O[C@H]1C[C@H](N)[C@H](O)[C@H](C)O1` [doxorubicin, reference compound]: the inhibition at 100 µM in the data set with PC3 came out at 100%; in the data set on A549, 100%; with MCF7 it was 91%; in the data set with HCT116, 100%; in the data set on HepG2, 100%. Further, the concentration for half-maximal inhibition (IC50) in the data set on PC3 was 6.8 ± 1.2 µM; in the data set on HCT116, 12.8 ± 1 µM; in the data set with HepG2, 0.6 µM.

In general, inhibition refers to the relative decrease from the control value, in per cent. For orientation: melting point means the temperature of the solid-liquid transition. Broadly, the IC50 is the concentration at which inhibition is half-maximal. Read a high IC50 as weaker potency in that assay.
